Assay results published in patent US20140242093A1, “METHODS AND COMPOSITIONS FOR MODULATING THE INNATE IMMUNE RESPONSE AND/OR MYOGENESIS IN A MAMMALIAN SUBJECT” (FRED HUTCHINSON CANCER RESEARCH CENTER, priority 2011, published 2014).

Test system: control human primary myoblasts
Test: Expression microarray of primary myoblasts transduced with lentivirus carrying DUX4-fl, DUX4-s or GFP
Method: Primary human myoblasts were collected and cultured as previously described (Snider et al., 2010). Primary myoblasts were maintained at or below 70% confluency for proliferation. For differentiation, cells were allowed to reach 95-100% confluency in growth medium. Once confluency was reached, the cells were changed to differentiation medium (F10 media supplemented with 1% horse serum, 10 μg/mL insulin, and 10 μg/mL transferrin, penicillin/streptomycin) and maintained for 4 days. Human RD cells were grown in DMEM in 10% bovine calf serum (Hyclone) and penicillin/streptomycin. The primary myoblasts were transduced with lentivirus carrying DUX-fl, DUX4- or GFP (MOI=15).
Expression microarrays were performed on the transduced cells at 24 hours after transduction as follows. […] Samples were analyzed by Illumina Human Whole Genome microarrays. Probe intensities were corrected, normalized, and summarized by the Lumi package of Bioconductor (Du et al., 2008). Differentially expressed genes were identified by the LIMMA package of Bioconductor (Wettenhall and Smyth, 2004). Gene set enrichment analysis (GSEA) was performed using the Bioconductor GOstats package (Falcon and Gentleman, 2007).

DUX4-fl: full-length DUX4 protein (SEQ ID NO:110), expressed from lentiviral or pCS2 vectors or in vitro translated
GTF2F1 expression fc (Refseq NM_002096.1): 3.208
HLA-A fc (Refseq NM_002116.5): −1.08
HMOX1 expression fc (Refseq NM_002133.1, cultured human skeletal muscle): −1.924
HOXB2 expression fc (Refseq NM_002145.3): 2.202
HSPA6 expression fc (Refseq NM_002155.3): 1.994
ID2 expression fc (Refseq NM_002166.4): 2.336
fc of IFNB1 (expression array) (Refseq NM_002176.2): −0.3894
INSM1 expression fc (Refseq NM_002196.2): 1.801
IRF1 expression fc (Refseq NM_002198.1, cultured human skeletal muscle): −2.643
ISG20 expression fc (Refseq NM_002201.4, cultured human skeletal muscle): −2.94
fc of ITGA3 (expression array) (Refseq NM_002204.1): −1.041
fc of JUNB (expression array) (Refseq NM_002229.2): −1.063
JUP expression fc (Refseq NM_002230.1): 3.172
KPNA2 expression fc (Refseq NM_002266.2): 2.416
fc of LAMC1 (expression array) (Refseq NM_002293.2): −0.5108
fc of LSS (expression array) (Refseq NM_002340.3): −1.045
LTBR fc (Refseq NM_002342.1): −1.155
LUM fc (Refseq NM_002345.3): −1.126
LY6E expression fc (Refseq NM_002346.1, cultured human skeletal muscle): −3.251
fc of MDM2 (expression array) (Refseq NM_002392.2): −0.588
MX1 expression fc (Refseq NM_002462.2, cultured human skeletal muscle): −5.675
MX2 expression fc (Refseq NM_002463.1, cultured human skeletal muscle): −4.066
fc of MYF6 (expression array) (Refseq NM_002469.1): −1.042
MYOD1 fc (Refseq NM_002478.4): −1.113
NFYA expression fc (Refseq NM_002505.3): 2.335
OAS2 expression fc (Refseq NM_002535.2, cultured human skeletal muscle): −2.711
ODC1 expression fc (Refseq NM_002539.1): 3.657
PDE4B fc (Refseq NM_002600.3): −1.143
PFKP fc (Refseq NM_002627.3): −1.106
PIM1 expression fc (Refseq NM_002648.2): 2.215
EXOSC10 expression fc (Refseq NM_002685.2): 1.937
PNN expression fc (Refseq NM_002687.3): 1.949
PRKD1 fc (Refseq NM_002742.2): −1.099
PSMB9 expression fc (Refseq NM_002800.4, cultured human skeletal muscle): −3.137
PTX3 expression fc (Refseq NM_002852.2, cultured human skeletal muscle): −2.744
PYGB expression fc (Refseq NM_002862.3, cultured human skeletal muscle): −2.046
fc of RAB13 (expression array) (Refseq NM_002870.2): −1.032
fc of RBMS1 (expression array) (Refseq NM_002897.3): −0.6159
fc of RBMS2 (expression array) (Refseq NM_002898.2): −0.772
RXRA fc (Refseq NM_002957.3): −1.132
CCL2 expression fc (Refseq NM_002982.3, cultured human skeletal muscle): −2.681
CCL5 expression fc (Refseq NM_002985.2, cultured human skeletal muscle): −2.528
CXCL6 expression fc (Refseq NM_002993.2, cultured human skeletal muscle): −1.994
CXCL5 expression fc (Refseq NM_002994.3, cultured human skeletal muscle): −2.469
SLC2A5 expression fc (Refseq NM_003039.1, cultured human skeletal muscle): −1.958
SLC22A4 fc (Refseq NM_003059.2): −1.134
SNAI2 expression fc (Refseq NM_003068.3, cultured human skeletal muscle): −2.095
fc of SMARCD3 (expression array) (Refseq NM_003078.3): −1.022
SNRNP70 expression fc (Refseq NM_003089.4): 1.885
SOX4 expression fc (Refseq NM_003107.2): 1.809
SPG7 fc (Refseq NM_003119.2): −1.113
SRP19 expression fc (Refseq NM_003135.1): 1.866
fc of STRN (expression array) (Refseq NM_003162.2): −0.2348
THBS1 fc (Refseq NM_003246.2): −1.092
UBA7 expression fc (Refseq NM_003335.2, cultured human skeletal muscle): −2.561
fc of UGCG (expression array) (Refseq NM_003358.1): −0.8891
WEE1 fc (Refseq NM_003390.2): −1.099
WNT5A fc (Refseq NM_003392.3): −1.103
fc of XPO1 (expression array) (Refseq NM_003400.3): −1.04
fc of ZFP36 (expression array) (Refseq NM_003407.2): −1.044
ZKSCAN1 fc (Refseq NM_003439.1): −1.082
fc of Cxorfl2 (expression array) (Refseq NM_003492.1): −1.02
fc of TAGLN2 (expression array) (Refseq NM_003564.1): −1.002
fc of EEA1 (expression array) (Refseq NM_003566.2): −0.963
IFITM1 expression fc (Refseq NM_003641.3, cultured human skeletal muscle): −6.118
fc of VAMP8 (expression array) (Refseq NM_003761.2): −1.02
fc of VAMP4 (expression array) (Refseq NM_003762.3): −1.018
RNGTT expression fc (Refseq NM_003800.3): 2.018
RIPK1 fc (Refseq NM_003804.3): −1.103
TNFSF10 fc (Refseq NM_003810.2): −1.127
TNFRSF14 expression fc (Refseq NM_003820.2, cultured human skeletal muscle): −2.72
fc of RIOK3 (expression array) (Refseq NM_003831.2): −0.5229
TNFRSF10A fc (Refseq NM_003844.2): −1.126
PEX11B fc (Refseq NM_003846.1): −1.142
CES2 expression fc (Refseq NM_003869.4, cultured human skeletal muscle): −2.043
CFLAR expression fc (Refseq NM_003879.3, cultured human skeletal muscle): −1.94
fc of ASAP2 (expression array) (Refseq NM_003887.2): −1.028
CCNA1 expression fc (Refseq NM_003914.2): 7.526
fc of USP13 (expression array) (Refseq NM_003940.2): −0.08799
NPR2 fc (Refseq NM_003995.3): −1.166
fc of OSMR (expression array) (Refseq NM_003999.1): −0.7417
